Measurements from patent publication US20100324147A1, “ARYLCYCLOPROPYLAMINES AND METHODS OF USE” (priority 2009, published 2010).

How the values were obtained:
Assay type in all cases: biochemical
Details in all cases: for Ki: inhibitor concentration that yields half the maximal rate of inactivation; for kinact: maximal rate of inactivation
LSD1 = LSD1 (Homo sapiens, UniProt O60341); assay: HRP-coupled amine oxidase assay, time-dependent inactivation of LSD1
Description: (§1) For example, in vitro enzymatic assays may be performed in which hydrogen peroxide generated from reoxidation of the FAD cofactor by molecular oxygen by LSD1 or MAOs is monitored, e.g., using a horseradish peroxidase (HRP) coupled assay. The enzyme may be incubated with an appropriate peptide substrate that includes a dimethylated lysine residue, as well as an arylcyclopropylamine compound of the invention. A fluorogenic substrate may be included in the reaction, which upon reaction with H2O2 produced by the enzyme produces a fluorescent substrate that may be detected. Inhibition kinetics may then be determined by appropriate fitting of the data.
The C-terminal GYG was added to allow for quantification of the peptide concentration.
(§2) The peroxide production generated from reoxidation of the FAD cofactor by molecular oxygen by LSD1 or MAOs was monitored using a horseradish peroxidase (HRP) coupled assay (FIG. 1). Amplex red was used as the fluorogenic electron acceptor and the fluorescence (excitation 560 nm, emission 590 nm) was measured using a Molecular Devices Spectra Max Gemini EM plate reader. The inhibition kinetics were determined by fitting the progress curves to eq. 1 describing time-dependent inactivation to determine kobs:
(§3) product=(vi/kobs)(1−e^−k^obs^t) (1)
(§4) where vi is the initial rate prior to inactivation, t is time and kobs is the observed rate of inactivation. The resulting values were plotted as a function of inhibitor concentration to obtain values of Ki and kinact according to eq. 2.
(§5) where kinact is the maximal rate of inactivation and Ki is the inhibitor concentration that yields half that rate of inactivation.

MAO B = target: T1, MAO B (Homo sapiens, UniProt P27338); assay: HRP-coupled amine oxidase assay, time-dependent inactivation of MAO B
T1 sequence (P27338 1-520): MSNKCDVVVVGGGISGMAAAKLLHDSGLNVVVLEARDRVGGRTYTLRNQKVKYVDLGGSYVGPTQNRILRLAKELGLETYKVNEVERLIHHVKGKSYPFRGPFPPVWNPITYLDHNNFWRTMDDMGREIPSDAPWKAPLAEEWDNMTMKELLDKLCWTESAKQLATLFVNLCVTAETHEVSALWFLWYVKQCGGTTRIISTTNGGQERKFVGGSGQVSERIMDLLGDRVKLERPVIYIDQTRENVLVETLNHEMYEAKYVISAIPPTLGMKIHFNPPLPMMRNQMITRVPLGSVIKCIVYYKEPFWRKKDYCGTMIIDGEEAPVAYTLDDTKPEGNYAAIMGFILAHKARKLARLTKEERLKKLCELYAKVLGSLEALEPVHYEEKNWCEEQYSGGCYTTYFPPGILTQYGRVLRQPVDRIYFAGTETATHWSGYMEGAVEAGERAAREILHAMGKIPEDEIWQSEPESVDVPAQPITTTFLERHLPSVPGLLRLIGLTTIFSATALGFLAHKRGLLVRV
Description: as §1, §2, §3, §4, §5

MAO A = target: T2, MAO A (Homo sapiens, UniProt P21397); assay: HRP-coupled amine oxidase assay, time-dependent inactivation of MAO A
T2 sequence (P21397 1-527): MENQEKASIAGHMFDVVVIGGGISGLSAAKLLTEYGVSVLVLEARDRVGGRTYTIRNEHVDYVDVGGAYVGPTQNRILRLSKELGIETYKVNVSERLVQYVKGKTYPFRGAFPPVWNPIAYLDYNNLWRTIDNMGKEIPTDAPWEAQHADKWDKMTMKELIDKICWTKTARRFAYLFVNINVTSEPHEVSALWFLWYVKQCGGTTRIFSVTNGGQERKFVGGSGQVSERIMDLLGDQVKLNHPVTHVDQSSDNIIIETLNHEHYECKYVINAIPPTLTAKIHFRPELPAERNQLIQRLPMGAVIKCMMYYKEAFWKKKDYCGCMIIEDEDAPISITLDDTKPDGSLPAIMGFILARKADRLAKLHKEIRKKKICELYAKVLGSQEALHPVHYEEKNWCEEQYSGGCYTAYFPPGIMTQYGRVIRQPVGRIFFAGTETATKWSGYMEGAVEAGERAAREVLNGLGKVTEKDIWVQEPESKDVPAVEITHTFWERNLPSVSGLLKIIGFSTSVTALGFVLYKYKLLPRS
Description: as §1, §2, §3, §4, §5

Structure (SMILES): CCOc1ccc(C2CC2N)cc1 (stereo not shown) [compound 1]
- kinact/KI (LSD1): 45 M⁻¹ s⁻¹
- Ki (LSD1): 456 ± 86 µM
- kinact (LSD1): 0.0204 ± 0.0018 s⁻¹
- kinact/KI (MAO B): 762 M⁻¹ s⁻¹
- Ki (MAO B): 63 ± 10 µM
- kinact (MAO B): 0.048 ± 0.004 s⁻¹
- kinact/KI (MAO A): 3140 M⁻¹ s⁻¹
- Ki (MAO A): 4.3 ± 0.8 µM
- kinact (MAO A): 0.0135 ± 0.0004 s⁻¹

Structure (SMILES): CC(C)Oc1ccc(C2CC2N)cc1 (stereo not shown) [compound 2]
- kinact/KI (LSD1): 54 M⁻¹ s⁻¹
- Ki (LSD1): 352 ± 76 µM
- kinact (LSD1): 0.0192 ± 0.0017 s⁻¹
- kinact/KI (MAO B): 383 M⁻¹ s⁻¹
- Ki (MAO B): 106 ± 20 µM
- kinact (MAO B): 0.046 ± 0.006 s⁻¹
- kinact/KI (MAO A): 1320 M⁻¹ s⁻¹
- Ki (MAO A): 19.7 ± 4.6 µM
- kinact (MAO A): 0.026 ± 0.002 s⁻¹

Structure (SMILES): NC1CC1c1ccc(Oc2ccccc2)cc1 (stereo not shown) [compound 3]
- kinact/KI (MAO B): 1100 M⁻¹ s⁻¹
- Ki (MAO B): 29.5 ± 4.4 µM
- kinact (MAO B): 0.0623 ± 0.0018 s⁻¹
- kinact/KI (MAO A): 5720 M⁻¹ s⁻¹
- Ki (MAO A): 12.4 ± 4.3 µM
- kinact (MAO A): 0.071 ± 0.007 s⁻¹

Structure (SMILES): NC1CC1c1cccc(OCc2ccccc2)c1 (stereo not shown) [compound 4]
- kinact/KI (LSD1): 33 M⁻¹ s⁻¹
- Ki (LSD1): 760 ± 280 µM

Structure (SMILES): CC(C)(C)c1ccc(Sc2ccc(C3CC3N)cc2)cc1 (stereo not shown) [compound 5]
- kinact/KI (LSD1): 40 M⁻¹ s⁻¹
- kinact (LSD1): 0.0215 ± 0.003 s⁻¹
